Data reported in ChEMBL document CHEMBL5316381, “Discovery of [1,2,3]Triazolo[4,5-c]quinoline Derivatives as a New Class of Ataxia-Telangiectasia Mutated Kinase Inhibitors” (ACS Med Chem Lett, 2023).
pIC50: −log10 of the molar value. The source made the active and inactive calls. The calls are words filed in the database; no cut-off is given here.

How the values were obtained:
[1] = system: SW-620; assay: Induction of apoptosis in human SW620 cells assessed as necrotic cells at 30 nM measured after 72 hrs in presence of CPT-11 by Annexin V-FITC staining based flow cytometric analysis (reference value: 5.83%); assay type: functional
[2] = system: SW-620; assay: Induction of apoptosis in human SW620 cells assessed as early apoptotic cells at 100 nM measured after 72 hrs by Annexin V-FITC staining based flow cytometric analysis (reference value: 1.06%); assay type: functional
[3] = molecular target: Serine/threonine-protein kinase Chk2 (Homo sapiens) (UniProt O96017); assay: Inhibition of CPT-11 induced Chk2 phosphorylation in human SW620 cells by SDS-PAGE based Westernblot analysis; assay type: cell-based
[4] = Toxicity in BALB/c mouse xenografted with human SW620 cells assessed as kidney damage at 5 mg/kg, ip administered once daily and measured after 23 days by H&E staining based microscopic analysis; assay type: organism-based, SW-620; details: in vivo, 552 h, time 23 day
[5] = system: SW-620; assay: Induction of apoptosis in human SW620 cells assessed as late apoptotic cells at 30 nM measured after 72 hrs in presence of CPT-11 by Annexin V-FITC staining based flow cytometric analysis (reference value: 5.75%); assay type: functional
[6] = system: SW-620; assay: Induction of apoptosis in human SW620 cells assessed as early apoptotic cells at 30 nM measured after 72 hrs in presence of CPT-11 by Annexin V-FITC staining based flow cytometric analysis (reference value: 1.06%); assay type: functional
[7] = molecular target: DNA-dependent protein kinase catalytic subunit (Homo sapiens, UniProt P78527); assay: Inhibition of DNA-PK (unknown origin) using GST-cMyc-p53 as substrate incubated for 30 mins in the presence of Mg/ATP mix by HTRF-based analysis
[8] = molecular target: Serine/threonine-protein kinase ATR (Homo sapiens, UniProt Q13535); assay: Inhibition of ATR (unknown origin) using GST-cMyc-p53 as substrate incubated for 30 mins in the presence of Mg/ATP mix by HTRF-based analysis
[9] = system: SW-620; assay: Radiosensitizing activity against human SW620 cells assessed as reduction in colony formation at 9 nM incubated after 14 days in the presence of 3 Gy irradiation by crystal violet staining based analysis; assay type: functional, cell-based; details: time 14.0 day
[10] = system: SW-620; assay: Induction of apoptosis in human SW620 cells assessed as early apoptotic cells at 10 nM measured after 72 hrs in presence of CPT-11 by Annexin V-FITC staining based flow cytometric analysis (reference value: 1.06%); assay type: functional
[11] = molecular target: PI3-kinase p110-delta/p85-alpha (Homo sapiens, UniProt O00329); assay: Inhibition of human PI3K p110 delta/p85 alpha using phosphatidylinositol-4, 5-bisphosphate as substrate incubated for 30 mins in the presence of Mg/ATP mix by HTRF-based analysis; assay type: protein-complex assay
[12] = molecular target: T1, Serine-protein kinase ATM (Homo sapiens, UniProt Q13315); assay: Inhibition of ATM (unknown origin) using GST-cMyc-p53 as substrate incubated for 30 mins in presence of Mg/ATP mix by HTRF-based analysis
[13] = system: SW-620; assay: Antitumor activity against human SW620 cells xenografted in BALB/C mouse assessed as reduction in tumor volume at 5 mg/kg, ip administered once a week and measured after 23 days in the presence of CPT-11; assay type: functional, organism-based; details: time 23.0 day
[14] = molecular target: T1, Serine-protein kinase ATM; assay: Inhibition of ATM in human SW620 cells assessed as increase in gamma H2AX foci at 250 nM incubated for 24 hrs by confocal microscopic analysis; assay type: cell-based
[15] = system: SW-620; assay: Radiosensitizing activity against human SW620 cells assessed as reduction in colony formation at 9 nM incubated after 14 days in the presence of 1.5 Gy irradiation by crystal violet staining based analysis; assay type: functional, cell-based; details: time 14.0 day

T1 sequence (Q13315 whole entry): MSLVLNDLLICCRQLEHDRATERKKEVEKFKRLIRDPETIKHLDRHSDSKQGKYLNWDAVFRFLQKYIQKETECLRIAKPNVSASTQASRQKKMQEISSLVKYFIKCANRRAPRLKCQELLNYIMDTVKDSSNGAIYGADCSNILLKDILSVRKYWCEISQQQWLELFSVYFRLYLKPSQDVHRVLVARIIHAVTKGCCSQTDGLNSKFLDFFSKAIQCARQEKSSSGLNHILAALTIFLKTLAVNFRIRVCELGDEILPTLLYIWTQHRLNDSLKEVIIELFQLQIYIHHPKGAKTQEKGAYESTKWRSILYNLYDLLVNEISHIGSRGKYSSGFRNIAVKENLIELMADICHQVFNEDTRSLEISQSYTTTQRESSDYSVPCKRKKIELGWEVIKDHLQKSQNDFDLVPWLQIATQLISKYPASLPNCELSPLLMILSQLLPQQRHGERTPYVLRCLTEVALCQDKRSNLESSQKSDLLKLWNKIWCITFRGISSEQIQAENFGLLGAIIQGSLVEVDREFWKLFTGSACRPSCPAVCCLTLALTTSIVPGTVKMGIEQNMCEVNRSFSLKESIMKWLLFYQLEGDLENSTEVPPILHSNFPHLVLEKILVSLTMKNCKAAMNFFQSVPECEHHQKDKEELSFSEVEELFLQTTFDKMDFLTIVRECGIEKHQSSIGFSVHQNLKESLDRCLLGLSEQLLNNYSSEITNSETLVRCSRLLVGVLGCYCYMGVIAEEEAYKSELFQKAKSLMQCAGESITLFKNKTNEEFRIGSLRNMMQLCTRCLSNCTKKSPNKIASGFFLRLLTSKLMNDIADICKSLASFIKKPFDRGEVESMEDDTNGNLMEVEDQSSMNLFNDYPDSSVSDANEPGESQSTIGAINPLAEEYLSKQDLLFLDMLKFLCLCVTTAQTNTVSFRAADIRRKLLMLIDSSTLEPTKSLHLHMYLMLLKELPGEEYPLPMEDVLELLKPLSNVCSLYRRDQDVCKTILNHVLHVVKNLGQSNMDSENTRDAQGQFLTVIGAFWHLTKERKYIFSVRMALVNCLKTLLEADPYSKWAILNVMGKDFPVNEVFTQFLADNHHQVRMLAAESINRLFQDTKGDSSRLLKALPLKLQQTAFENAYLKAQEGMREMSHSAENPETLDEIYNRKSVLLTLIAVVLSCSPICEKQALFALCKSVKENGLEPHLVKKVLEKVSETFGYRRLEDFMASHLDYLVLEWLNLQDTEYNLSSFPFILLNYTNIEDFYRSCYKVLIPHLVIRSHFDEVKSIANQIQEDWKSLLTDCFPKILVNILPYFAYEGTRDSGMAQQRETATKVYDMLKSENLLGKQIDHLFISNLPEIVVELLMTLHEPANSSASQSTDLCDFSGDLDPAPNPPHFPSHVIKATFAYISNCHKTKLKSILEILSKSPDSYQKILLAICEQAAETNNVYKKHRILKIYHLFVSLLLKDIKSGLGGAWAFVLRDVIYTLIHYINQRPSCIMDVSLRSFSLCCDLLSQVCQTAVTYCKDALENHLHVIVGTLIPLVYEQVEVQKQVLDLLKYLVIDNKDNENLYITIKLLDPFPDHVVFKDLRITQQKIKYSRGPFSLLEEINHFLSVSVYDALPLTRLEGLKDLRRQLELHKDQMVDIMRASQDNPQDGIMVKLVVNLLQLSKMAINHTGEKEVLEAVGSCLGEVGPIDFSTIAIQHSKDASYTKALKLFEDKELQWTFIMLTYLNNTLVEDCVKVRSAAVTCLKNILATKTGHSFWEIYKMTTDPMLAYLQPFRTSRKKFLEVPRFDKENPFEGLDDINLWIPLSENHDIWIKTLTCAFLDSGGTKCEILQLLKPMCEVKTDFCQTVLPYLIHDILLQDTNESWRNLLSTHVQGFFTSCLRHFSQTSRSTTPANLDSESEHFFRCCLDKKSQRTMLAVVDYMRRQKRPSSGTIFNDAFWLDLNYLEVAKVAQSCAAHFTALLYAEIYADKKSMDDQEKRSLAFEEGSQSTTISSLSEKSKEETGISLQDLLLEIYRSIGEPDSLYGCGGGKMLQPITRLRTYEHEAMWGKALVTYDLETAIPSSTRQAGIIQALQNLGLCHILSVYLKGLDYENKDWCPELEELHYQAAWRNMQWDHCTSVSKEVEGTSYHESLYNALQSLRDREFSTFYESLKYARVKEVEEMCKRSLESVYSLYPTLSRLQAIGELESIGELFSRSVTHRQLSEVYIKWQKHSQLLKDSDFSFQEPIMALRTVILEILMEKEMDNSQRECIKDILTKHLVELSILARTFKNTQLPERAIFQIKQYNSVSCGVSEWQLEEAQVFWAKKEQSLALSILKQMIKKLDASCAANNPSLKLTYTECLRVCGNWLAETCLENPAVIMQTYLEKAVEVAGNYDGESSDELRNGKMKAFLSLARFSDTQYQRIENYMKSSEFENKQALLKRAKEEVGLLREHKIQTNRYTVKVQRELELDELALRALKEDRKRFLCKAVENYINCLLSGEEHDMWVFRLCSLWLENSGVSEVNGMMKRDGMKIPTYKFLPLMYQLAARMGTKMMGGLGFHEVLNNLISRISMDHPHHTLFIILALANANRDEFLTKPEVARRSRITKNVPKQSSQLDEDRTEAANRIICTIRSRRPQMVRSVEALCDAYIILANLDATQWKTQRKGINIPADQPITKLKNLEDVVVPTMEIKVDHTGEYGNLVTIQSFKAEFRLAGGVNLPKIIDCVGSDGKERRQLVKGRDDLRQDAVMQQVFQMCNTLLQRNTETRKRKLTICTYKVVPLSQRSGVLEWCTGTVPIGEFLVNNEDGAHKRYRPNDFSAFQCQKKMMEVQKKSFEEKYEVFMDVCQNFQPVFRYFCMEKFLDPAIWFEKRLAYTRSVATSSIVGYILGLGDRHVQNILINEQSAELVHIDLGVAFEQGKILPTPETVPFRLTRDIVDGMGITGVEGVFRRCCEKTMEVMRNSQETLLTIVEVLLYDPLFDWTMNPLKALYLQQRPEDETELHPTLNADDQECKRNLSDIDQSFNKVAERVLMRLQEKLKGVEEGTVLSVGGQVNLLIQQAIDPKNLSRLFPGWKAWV
Sequence of PI3-kinase p110-delta/p85-alpha (P27986 whole entry): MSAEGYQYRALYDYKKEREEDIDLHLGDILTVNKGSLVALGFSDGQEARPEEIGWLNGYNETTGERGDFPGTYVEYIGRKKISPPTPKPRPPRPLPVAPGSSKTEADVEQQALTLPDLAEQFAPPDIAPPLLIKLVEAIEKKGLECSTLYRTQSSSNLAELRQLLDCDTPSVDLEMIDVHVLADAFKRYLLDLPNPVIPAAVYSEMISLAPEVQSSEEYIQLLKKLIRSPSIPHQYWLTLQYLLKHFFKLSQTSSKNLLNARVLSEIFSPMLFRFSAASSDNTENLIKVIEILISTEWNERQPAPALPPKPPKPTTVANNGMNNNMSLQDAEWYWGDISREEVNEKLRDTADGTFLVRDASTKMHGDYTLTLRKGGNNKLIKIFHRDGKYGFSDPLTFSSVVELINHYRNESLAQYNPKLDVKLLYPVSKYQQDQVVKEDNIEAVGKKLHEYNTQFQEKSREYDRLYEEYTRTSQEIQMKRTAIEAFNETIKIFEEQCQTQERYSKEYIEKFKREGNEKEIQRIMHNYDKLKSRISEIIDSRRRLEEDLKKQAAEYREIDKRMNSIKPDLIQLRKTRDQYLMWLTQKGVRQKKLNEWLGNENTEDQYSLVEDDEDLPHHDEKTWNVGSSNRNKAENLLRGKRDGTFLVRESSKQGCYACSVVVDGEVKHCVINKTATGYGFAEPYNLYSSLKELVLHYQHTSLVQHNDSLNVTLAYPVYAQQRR
Sequence of PI3-kinase p110-delta/p85-alpha (O00329 whole entry): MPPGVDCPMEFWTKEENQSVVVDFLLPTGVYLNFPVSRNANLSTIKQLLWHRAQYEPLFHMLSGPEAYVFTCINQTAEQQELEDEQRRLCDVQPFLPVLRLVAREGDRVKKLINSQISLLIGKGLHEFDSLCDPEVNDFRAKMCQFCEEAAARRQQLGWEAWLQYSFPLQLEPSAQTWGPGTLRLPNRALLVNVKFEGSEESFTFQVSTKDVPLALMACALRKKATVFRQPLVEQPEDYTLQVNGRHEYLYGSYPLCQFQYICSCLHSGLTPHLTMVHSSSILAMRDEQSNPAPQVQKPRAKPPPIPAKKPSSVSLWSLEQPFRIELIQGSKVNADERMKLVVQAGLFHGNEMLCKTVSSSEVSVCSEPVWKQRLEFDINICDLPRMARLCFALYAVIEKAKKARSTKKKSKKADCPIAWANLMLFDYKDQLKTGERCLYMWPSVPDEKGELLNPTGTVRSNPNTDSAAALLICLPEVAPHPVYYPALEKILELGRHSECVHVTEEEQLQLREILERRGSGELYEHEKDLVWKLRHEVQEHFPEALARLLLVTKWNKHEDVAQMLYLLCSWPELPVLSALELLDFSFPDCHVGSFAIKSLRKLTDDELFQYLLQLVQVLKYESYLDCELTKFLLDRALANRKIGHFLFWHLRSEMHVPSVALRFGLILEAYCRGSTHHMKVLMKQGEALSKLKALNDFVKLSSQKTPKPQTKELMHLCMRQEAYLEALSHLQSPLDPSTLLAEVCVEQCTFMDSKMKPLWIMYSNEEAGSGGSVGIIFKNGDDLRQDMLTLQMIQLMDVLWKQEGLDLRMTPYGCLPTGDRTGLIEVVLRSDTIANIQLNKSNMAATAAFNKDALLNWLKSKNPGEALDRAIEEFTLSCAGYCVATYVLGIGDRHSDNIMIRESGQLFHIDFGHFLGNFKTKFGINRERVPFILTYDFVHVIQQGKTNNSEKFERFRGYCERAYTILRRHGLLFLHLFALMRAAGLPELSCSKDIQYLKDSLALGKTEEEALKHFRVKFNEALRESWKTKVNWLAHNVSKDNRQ

inhibition [3]: Dose-Dependent Effect | pIC50 [7]: 6.91 | pIC50 [8]: < 5.00 | pIC50 [11]: 5.99 | pIC50 [12]: 9.00 | inhibition [14]: Active
SMILES: C[C@H](c1ccccc1)n1nnc2cnc3ccc(-c4ccc(OCCCN(C)C)nc4)cc3c21
Activity [1]: 1.83% | Activity [2]: 1.88% | Activity [4]: Non-Toxic | Activity [5]: 44% | Activity [6]: 6.95% | Activity [9]: Active | Activity [10]: 2.76% | Activity [13]: Active | Activity [15]: Active
